Data published in PMC11823630, “In vitro potentiation of tetracyclines in Pseudomonas aeruginosa by RW01, a new cyclic peptide” (Antimicrobial Agents and Chemotherapy, 2024).
Values after ≈ are worked out from the molar mass of the structure shown. Like-named read-outs stand apart in the source and are kept apart here.

What was measured:
[1] = system: PAO1 mutant MIN16_3, nfxB(nt79∆14), pilB(N349K); experiment: MIC, E-test on MHA; type: cell-based; settings: Pseudomonas aeruginosa, PAO1, read-out: MIC, E-test
[2] = system: PAO1 mutant MIN4_RW01_2, pmrB(F124S); experiment: MIC, E-test on MHA; type: cell-based; settings: Pseudomonas aeruginosa, PAO1, read-out: MIC, E-test
[3] = system: PAO1 mutant MIN1_RW01_4, pmrB(F124L); experiment: MIC, E-test on MHA; type: cell-based; settings: Pseudomonas aeruginosa, PAO1, read-out: MIC, E-test
[4] = system: PAO1 mutant MIN1_RW01_2, mexR(G58E), pilB(G326D), hutC(Y181X); experiment: MIC, E-test on MHA; type: cell-based; settings: Pseudomonas aeruginosa, PAO1, read-out: MIC, E-test
[5] = system: PAO1 mutant MIN2_RW01_4, pmrB(M292T); experiment: MIC, E-test on MHA; type: cell-based; settings: Pseudomonas aeruginosa, PAO1, read-out: MIC, E-test
[6] = system: PAO1 mutant MIN1_RW01_3, pmrB(V215L); experiment: MIC, E-test on MHA; type: cell-based; settings: Pseudomonas aeruginosa, PAO1, read-out: MIC, E-test
[7] = system: PAO1 mutant MIN16_1, nalD(T43P); experiment: MIC, E-test on MHA; type: cell-based; settings: Pseudomonas aeruginosa, PAO1, read-out: MIC, E-test
[8] = system: P. aeruginosa PAOUW∆oprF; experiment: MIC, CLSI broth microdilution in BD Phoenix AST Broth; type: cell-based, Pseudomonas aeruginosa; settings: for MIC: Pseudomonas aeruginosa, agent alone, 37°C, 18–22 h, three biological replicates; for MIC / Antibiotic MIC + RW01 100 mg/L: strain PAOUWΔoprF; for Potentiation (fold) / FICI / FICI-determined effect: strain PAOUWΔoprF (printed PAOΔoprF); for Potentiation (fold): antibiotic MIC alone vs with RW01 100 mg/L; for FICI / FICI-determined effect: antibiotic with RW01 at 100 mg/L; for Antibiotic MIC + RW01 100 mg/L: MIC of the antibiotic with fixed 100 mg/L RW01
[9] = system: P. aeruginosa PAOΔmexZ; experiment: as above; type: cell-based, Pseudomonas aeruginosa; settings: strain PAOΔmexZ; for MIC: Pseudomonas aeruginosa, agent alone, 37°C, 18–22 h, three biological replicates; for Antibiotic MIC + RW01 100 mg/L: MIC of the antibiotic with fixed 100 mg/L RW01; for FICI / FICI-determined effect: antibiotic with RW01 at 100 mg/L
[10] = system: P. aeruginosa 125B; experiment: as above; type: cell-based, Pseudomonas aeruginosa; settings: strain 125B; for MIC: Pseudomonas aeruginosa, agent alone, 37°C, 18–22 h, three biological replicates; for Antibiotic MIC + RW01 100 mg/L: MIC of the antibiotic with fixed 100 mg/L RW01; for Potentiation (fold): antibiotic MIC alone vs with RW01 100 mg/L; for FICI / FICI-determined effect: antibiotic with RW01 at 100 mg/L
[11] = system: P. aeruginosa 41B; experiment: as above; type: cell-based, Pseudomonas aeruginosa; settings: strain 41B; for MIC: Pseudomonas aeruginosa, agent alone, 37°C, 18–22 h, three biological replicates; for Potentiation (fold): antibiotic MIC alone vs with RW01 100 mg/L; for FICI / FICI-determined effect: antibiotic with RW01 at 100 mg/L
[12] = system: P. aeruginosa PAOΔmexR; experiment: as above; type: cell-based, Pseudomonas aeruginosa; settings: for MIC: Pseudomonas aeruginosa; for Antibiotic MIC + RW01 100 mg/L / Potentiation (fold) / FICI / FICI-determined effect: strain PAOΔmexR; for Antibiotic MIC + RW01 100 mg/L: MIC of the antibiotic with fixed 100 mg/L RW01; for Potentiation (fold): antibiotic MIC alone vs with RW01 100 mg/L; for FICI / FICI-determined effect: antibiotic with RW01 at 100 mg/L
[13] = system: P. aeruginosa 41A; experiment: as above; type: cell-based, Pseudomonas aeruginosa; settings: strain 41A; for MIC: Pseudomonas aeruginosa, agent alone, 37°C, 18–22 h, three biological replicates; for Antibiotic MIC + RW01 100 mg/L: MIC of the antibiotic with fixed 100 mg/L RW01; for Potentiation (fold): antibiotic MIC alone vs with RW01 100 mg/L; for FICI / FICI-determined effect: antibiotic with RW01 at 100 mg/L
[14] = system: P. aeruginosa 125A; experiment: as above; type: cell-based, Pseudomonas aeruginosa; settings: strain 125A; for MIC: Pseudomonas aeruginosa, agent alone, 37°C, 18–22 h, three biological replicates; for Potentiation (fold): antibiotic MIC alone vs with RW01 100 mg/L; for FICI / FICI-determined effect: antibiotic with RW01 at 100 mg/L
[15] = system: P. aeruginosa PAO1; experiment: as above; type: cell-based, Pseudomonas aeruginosa; settings: for MIC: agent alone, 37°C, 18–22 h, three biological replicates; for Antibiotic MIC + RW01 100 mg/L: MIC of the antibiotic with fixed 100 mg/L RW01; for Potentiation (fold): antibiotic MIC alone vs with RW01 100 mg/L; for FICI / FICI-determined effect: antibiotic with RW01 at 100 mg/L
[16] = system: P. aeruginosa PAOΔoprM; experiment: as above; type: cell-based, Pseudomonas aeruginosa; settings: for MIC: Pseudomonas aeruginosa; for Antibiotic MIC + RW01 100 mg/L / Potentiation (fold) / FICI / FICI-determined effect: strain PAOΔoprM; for Antibiotic MIC + RW01 100 mg/L: MIC of the antibiotic with fixed 100 mg/L RW01; for Potentiation (fold): antibiotic MIC alone vs with RW01 100 mg/L; for FICI / FICI-determined effect: antibiotic with RW01 at 100 mg/L
[17] = system: P. aeruginosa PAOUW; experiment: as above; type: cell-based, Pseudomonas aeruginosa; settings: strain PAOUW; for MIC: agent alone, 37°C, 18–22 h, three biological replicates; for Potentiation (fold): antibiotic MIC alone vs with RW01 100 mg/L; for FICI / FICI-determined effect: antibiotic with RW01 at 100 mg/L
[18] = system: P. aeruginosa PAO1; experiment: Checkerboard assay with RW01; type: cell-based, Pseudomonas aeruginosa
Protocol: (§1) To assess the in vitro interaction between RW01 and tetracyclines, the checkerboard assay method was performed in 96-well microtiter plates using strains PAO1 and PAOUW. In the same way as for MIC determination, BD Phoenix AST Broth (Becton Dickinson) medium was used for bacterial growth. Minocycline and tigecycline combined with RW01 were the agents selected for the assay. A column and a row of wells in the checkerboard plate were reserved for controls of each antimicrobial individually to ensure the proper concentration of the agents. Positive and negative controls were also included. Wells in rows contained serial dilutions of RW01 starting from 512 mg/L, while those in columns varied in concentrations of the antibiotic. Inoculum at ~5 × 10⁵ CFU/mL, antibiotic, RW01, and AST broth were added to a final volume of 200 µL. Plates were incubated at 37°C for 18–22 h under aerobic conditions. Three biological replicates were obtained. Fractional inhibitory concentration index (FICI) is defined as the summatory of fractional inhibitory concentrations (FICs) from compound A: RW01, and compound B: minocycline/tigecycline. FICs were calculated as:
(§2) FIC of RW01 (FICRW01)=MIC of RW01 in combination/MIC of RW01 alone,FIC of antibiotic (FICATB)=MIC of ATB in combination/MIC of ATB alone,FICI=FICRW01 +FICATB.
(§3) FICI was interpreted as follows: synergistic effect if FICI is ≤0.5; additive effect if 0.5 < FICI ≤ 1.0; indifferent effect if 1.0 < FICI ≤ 2.0; and finally, antagonistic effect if FICI is >2.0. The average FICI considering the antibiotic MIC (no growth in any of the replicates) at different concentrations of RW01 was calculated ([28]).

[19] = system: P. aeruginosa PAOUW; experiment: Checkerboard assay with RW01; type: cell-based, Pseudomonas aeruginosa
Protocol: as §1, §2, §3

[20] = MIC of the antibiotic with fixed 100 mg/L RW01
[21] = Pseudomonas aeruginosa, PAO1, strain PAO1, read-out: MIC
[22] = Pseudomonas aeruginosa, read-out: MIC
[23] = antibiotic combined with RW01, checkerboard, AST broth, 37°C, 18–22 h, three biological replicates

## C[C@H]1c2cccc(O)c2C(=O)C2=C(O)[C@]3(O)C(=O)C(C(N)=O)=C(O)[C@@H](N(C)C)[C@@H]3[C@@H](O)[C@@H]21 [Doxycycline, doxycycline]
[1]
  MIC: 192 µg/mL (≈ 432 µM)
[2]
  MIC: 64 µg/mL (≈ 144 µM)
[3]
  MIC: 96 µg/mL (≈ 216 µM)
[4]
  MIC: 256 µg/mL (≈ 576 µM)
[5]
  MIC: 64 µg/mL (≈ 144 µM)
[6]
  MIC: 64 µg/mL (≈ 144 µM)
[7]
  MIC: 256 µg/mL (≈ 576 µM)
[8]
  MIC: 16 µg/mL
  Potentiation (fold): 16 fold
  FICI: 0.160
  FICI-determined effect: Synergy (synergistic effect if FICI is ≤0.5)
  Antibiotic MIC + RW01 100 mg/L: 1 µg/mL
[9]
  MIC: 64 µg/mL
  Antibiotic MIC + RW01 100 mg/L: 4 µg/mL
  FICI: 0.160
  FICI-determined effect: Synergy (synergistic effect if FICI is ≤0.5)
[9]; antibiotic MIC alone vs with RW01 100 mg/L
  Potentiation (fold): 16 fold
[10]
  MIC: 4 µg/mL
  Antibiotic MIC + RW01 100 mg/L: 0.5 µg/mL
  Potentiation (fold): 8 fold
  FICI: 0.320
  FICI-determined effect: Synergy (synergistic effect if FICI is ≤0.5)
[11]
  MIC: 16 µg/mL
  Potentiation (fold): 8 fold
  FICI: 0.223
  FICI-determined effect: Synergy (synergistic effect if FICI is ≤0.5)
[11]; [20]
  Antibiotic MIC + RW01 100 mg/L: 2 µg/mL
[12]
  MIC: 64 µg/mL
  Antibiotic MIC + RW01 100 mg/L: 32 µg/mL
  Potentiation (fold): 2 fold
  FICI: 0.598
  FICI-determined effect: Additivity (additive effect if 0.5 < FICI ≤ 1.0)
[13]
  MIC: 16 µg/mL
  Antibiotic MIC + RW01 100 mg/L: 2 µg/mL
  Potentiation (fold): 8 fold
  FICI: 0.223
  FICI-determined effect: Synergy (synergistic effect if FICI is ≤0.5)
[14]
  MIC: 4 µg/mL
  Potentiation (fold): 8 fold
  FICI: 0.320
  FICI-determined effect: Synergy (synergistic effect if FICI is ≤0.5)
[15]; [21]
  MIC: 16 µg/mL
[15]; strain PAO1
  Antibiotic MIC + RW01 100 mg/L: 1 µg/mL
  Potentiation (fold): 16 fold
  FICI: 0.258
  FICI-determined effect: Synergy (synergistic effect if FICI is ≤0.5)
[16]
  MIC: 0.5 µg/mL
  Antibiotic MIC + RW01 100 mg/L: 0.125 µg/mL
  Potentiation (fold): 4 fold
  FICI: 0.348
  FICI-determined effect: Synergy (synergistic effect if FICI is ≤0.5)
[17]; [22]
  MIC: 32 µg/mL
[17]; [20]
  Antibiotic MIC + RW01 100 mg/L: 4 µg/mL
[17]
  Potentiation (fold): 8 fold
  FICI: 0.223
  FICI-determined effect: Synergy (synergistic effect if FICI is ≤0.5)

## CN(C)c1ccc(O)c2c1C[C@H]1C[C@H]3[C@H](N(C)C)C(O)=C(C(N)=O)C(=O)[C@@]3(O)C(O)=C1C2=O [Minocycline, minocycline]
[18]
  interaction with RW01 (checkerboard): additive
[18]; [23]
  average FIC Index: 0.535
[19]
  interaction with RW01 (checkerboard): synergistic
[19]; [23]
  average FIC Index: 0.406
[8]
  MIC: 8 µg/mL
  Potentiation (fold): 8 fold
  FICI: 0.223
  FICI-determined effect: Synergy (synergistic effect if FICI is ≤0.5)
  Antibiotic MIC + RW01 100 mg/L: 1 µg/mL
[9]
  MIC: 8 µg/mL
  Antibiotic MIC + RW01 100 mg/L: 1 µg/mL
  FICI: 0.160
  FICI-determined effect: Synergy (synergistic effect if FICI is ≤0.5)
[10]
  MIC: 8 µg/mL
  Antibiotic MIC + RW01 100 mg/L: 1 µg/mL
  Potentiation (fold): 8 fold
  FICI: 0.320
  FICI-determined effect: Synergy (synergistic effect if FICI is ≤0.5)
[11]
  MIC: 16 µg/mL
  Potentiation (fold): 8 fold
  FICI: 0.223
  FICI-determined effect: Synergy (synergistic effect if FICI is ≤0.5)
[12]
  MIC: 8 µg/mL
  Antibiotic MIC + RW01 100 mg/L: 1 µg/mL
  Potentiation (fold): 8 fold
  FICI: 0.223
  FICI-determined effect: Synergy (synergistic effect if FICI is ≤0.5)
[13]
  MIC: 8 µg/mL
  Antibiotic MIC + RW01 100 mg/L: 2 µg/mL
  Potentiation (fold): 4 fold
  FICI: 0.348
  FICI-determined effect: Synergy (synergistic effect if FICI is ≤0.5)
[14]
  MIC: 8 µg/mL
  Potentiation (fold): 8 fold
  FICI: 0.320
  FICI-determined effect: Synergy (synergistic effect if FICI is ≤0.5)
[14]; [20]
  Antibiotic MIC + RW01 100 mg/L: 1 µg/mL
[15]; [21]
  MIC: 8 to 16 µg/mL
[15]; strain PAO1
  Antibiotic MIC + RW01 100 mg/L: 2 µg/mL
  MIC: 8 µg/mL
  Potentiation (fold): 4 fold
  FICI: 0.445
  FICI-determined effect: Synergy (synergistic effect if FICI is ≤0.5)
[16]
  MIC: 2 µg/mL
  Antibiotic MIC + RW01 100 mg/L: 0.5 µg/mL
  Potentiation (fold): 4 fold
  FICI: 0.348
  FICI-determined effect: Synergy (synergistic effect if FICI is ≤0.5)
[17]; [22]
  MIC: 16 µg/mL
[17]
  MIC: 8 µg/mL
  Potentiation (fold): 8 fold
  FICI: 0.223
  FICI-determined effect: Synergy (synergistic effect if FICI is ≤0.5)
